{"source": "patent EP0934745B1", "about": "“Use of androsterone derivatives for inhibiting DNA binding of ap-1 and airway smooth muscle proliferation” (CHARLOTTE-MECKLENBURG HOSPITAL doing business as Carolinas …, priority 1998, dated 1999)", "test_system": "transcription factor activator protein-1 (AP-1)", "experiment": "Electrophoretic mobility shift assay of DNA binding of AP-1 in nuclear protein from treated cells", "assay_type": "cell-based, rat", "conditions": "pretreated 2 hours, then 10% FBS 6 hours; 50 µM DHEA; 2 and 10 µM 16α-BrEA (Figures 8A, 8B)", "protocol": "To study the effect of DHEA and 16α-BrEA on activation of AP-1, a secondary response important in cellular growth and proliferation (Angel and Karin, (1991), supra) confluent monolayers of airway smooth muscle in 75-cm^2 Petri dishes were growth arrested for 24 hours in 0.5% FBS and DMEM and pretreated 2 hours with DHEA, 16α-BrEA or DMSO vehicle. Cells were then stimulated with 10% FBS in DMEM for 6 hours, nuclear protein was harvested, and electrophoretic mobility shift assays were performed as described below to determine if treatment with DHEA and 16α-BrEA impaired DNA binding of AP-1. Measurement of Cytotoxicity and Apoptosis. To assess for cytotoxicity, DHEA or 16α-BrEA were added to wells of airway smooth muscle cells previously grown to confluence in DMEM and 10% FBS. After 24 hours, media was microfuged 5 minutes and supernatant was assayed for lactate dehydrogenase activity using a commercially available assay (DG-1340K from Sigma). Cells were washed twice in DPBS and exposed to trypan blue dye (0.04% in Hanks' balanced salt solution). Cell counts were performed in five random fields using a 0.01-cm^2 ocular grid to quantitate the average number of damaged or dead cells that accumulated dye.\nRNA (100 ng) was reverse-transcribed using M-MLV reverse transcriptase. […] The resulting polaroid negative was quantitated using a Bio Image Analyzer (Bio Image, Ann Arbor, MI). […]", "data": [{"smiles": "C[C@]12CC[C@H](O)CC1=CC[C@@H]1[C@@H]2CC[C@]2(C)C(=O)CC[C@@H]12", "note": "[DHEA, dehydroepiandrosterone]", "values": [{"measurement": "DNA binding of AP-1", "result": "inhibit DNA binding of AP-1"}]}, {"smiles": "C[C@]12CC[C@H](O)C[C@@H]1CC[C@@H]1[C@@H]2CC[C@]2(C)C(=O)[C@H](Br)C[C@@H]12", "note": "[16α-BrEA, 16α-bromoepiandrosterone]", "values": [{"measurement": "DNA binding of AP-1", "result": "inhibit DNA binding of AP-1"}]}]}
